Laboratory results as given in article PMC9154796, “Triazoloquinoxalines-based DNA intercalators-Topo II inhibitors: design, synthesis, docking, ADMET and anti-proliferative evaluations” (Journal of Enzyme Inhibition and Medicinal Chemistry, 2022).

Assays:
MCF-7 = assay: MTT colorimetric anti-proliferative assay; settings: Homo sapiens, MCF7, 72 h, read-out: IC50 MCF-7
HepG2 = assay: MTT colorimetric anti-proliferative assay; settings: Homo sapiens, HepG2, 72 h, read-out: IC50 HepG2
HCT116 = assay: MTT colorimetric anti-proliferative assay; settings: Homo sapiens, HCT-116, 72 h, read-out: IC50 HCT116
VERO normal cells = assay: Cytotoxicity against VERO normal cell lines; type: cell-based; settings: for IC50: Chlorocebus sabaeus, VERO normal cells, mean ± SD of three experiments; for fold safer in VERO normal cells compared to breast cancer cell lines (MCF-7): VERO versus MCF-7
Method: The cytotoxicity of these compounds against the cancer cell lines was from 3.41 to 9.51 µM. Derivatives 7b, 7c, 7e and 7g are respectively, 7.88, 10.81, 16.16 and 4.50 fold safer in VERO normal cells compared to breast cancer cell lines (MCF-7, the most sensitive cells).
The cytotoxicity assays were performed at Al-Azhar University, Pharmacology & Toxicology Department, Cairo, Egypt. Cancer cells from different cancer cell lines HCT-116, HepG2 and MCF-7, were purchased from ATCC, Manassas, USA and grown on the appropriate growth medium Roswell Park Memorial Institute medium (RPMI 1640) supplemented with […] of streptomycin, 100 units/mL of penicillin and 10% of heat-inactivated foetal bovine serum in a humidified, 5% (v/v) CO2 atmosphere at 37 °C Cytotoxicity assay by 3-[4,5-dimethylthiazole-2-yl]-2,5-diphenyltetrazolium bromide (MTT).
Cancer cell lines were trypsinized, counted and seeded into 96-well microtiter plates.

human Topo II = human Topo II (Homo sapiens, UniProt P11388); assay: In vitro topoisomerase II inhibitory activity; type: biochemical; settings: supercoiled pHot1 DNA, mean ± SD of three experiments
Method: A mixture of human Topo II (2 µl), substrate super coiled pHot1 DNA (0.25 µg), 50 µg/ml test compound (2 µl), and assay buffer (4 µl). […] Then, the DNA was run for 1–2 h on 1% agarose gel in BioRad gel electrophoresis system followed by staining with GelRedTM stain for 2 h and destained for 15 min with TAE buffer. The gel was imaged via BioRad’s Gel DocTMEZ system. Both supercoiled and linear strands of DNA were incorporated into the gel as markers for DNA-Topo II intercalators. By using the GraphPad Prism version 5.0, the values of IC50 were calculated. Each reaction was performed in duplicate, and at least three independent determinations of each IC50 were made.

DNA = assay: In vitro DNA/methyl green assay (DNA binding); settings: DNA/methyl green displacement, mean ± SD of three experiments
Description: The extremely potent 6e, 7b, 7c, 7e and 7g were further assessed for their DNA-binding according to the reported procedure using methyl green dye[21]^,[22]^,[49]. DNA-binding affinities results were presented as IC50 and briefed in Table 3.
Methyl green dye can bind DNA to form coloured DNA/methyl green reversible complex. These complexes at neutral pH are still stable. The methyl green is displaced from DNA upon intercalating agents addition. Colourless carbinol was formed by the addition of H2O to the dye, leading to a dramatic decrease in spectrophotometric absorbance. ΔA value (the difference between DNA/methyl green complex and free cabinol) provides the simplest means for detecting the DNA-binding affinity and relative binding strength. IC50 values were determined using the GraphPadPrism 5.0 software[21]^,[22]^,[49].

[1] = system: melanoma A375 cancer cells; parameters: method as in PMID 18513976; settings: cited from earlier work

Sequence of human Topo II (P11388 whole entry): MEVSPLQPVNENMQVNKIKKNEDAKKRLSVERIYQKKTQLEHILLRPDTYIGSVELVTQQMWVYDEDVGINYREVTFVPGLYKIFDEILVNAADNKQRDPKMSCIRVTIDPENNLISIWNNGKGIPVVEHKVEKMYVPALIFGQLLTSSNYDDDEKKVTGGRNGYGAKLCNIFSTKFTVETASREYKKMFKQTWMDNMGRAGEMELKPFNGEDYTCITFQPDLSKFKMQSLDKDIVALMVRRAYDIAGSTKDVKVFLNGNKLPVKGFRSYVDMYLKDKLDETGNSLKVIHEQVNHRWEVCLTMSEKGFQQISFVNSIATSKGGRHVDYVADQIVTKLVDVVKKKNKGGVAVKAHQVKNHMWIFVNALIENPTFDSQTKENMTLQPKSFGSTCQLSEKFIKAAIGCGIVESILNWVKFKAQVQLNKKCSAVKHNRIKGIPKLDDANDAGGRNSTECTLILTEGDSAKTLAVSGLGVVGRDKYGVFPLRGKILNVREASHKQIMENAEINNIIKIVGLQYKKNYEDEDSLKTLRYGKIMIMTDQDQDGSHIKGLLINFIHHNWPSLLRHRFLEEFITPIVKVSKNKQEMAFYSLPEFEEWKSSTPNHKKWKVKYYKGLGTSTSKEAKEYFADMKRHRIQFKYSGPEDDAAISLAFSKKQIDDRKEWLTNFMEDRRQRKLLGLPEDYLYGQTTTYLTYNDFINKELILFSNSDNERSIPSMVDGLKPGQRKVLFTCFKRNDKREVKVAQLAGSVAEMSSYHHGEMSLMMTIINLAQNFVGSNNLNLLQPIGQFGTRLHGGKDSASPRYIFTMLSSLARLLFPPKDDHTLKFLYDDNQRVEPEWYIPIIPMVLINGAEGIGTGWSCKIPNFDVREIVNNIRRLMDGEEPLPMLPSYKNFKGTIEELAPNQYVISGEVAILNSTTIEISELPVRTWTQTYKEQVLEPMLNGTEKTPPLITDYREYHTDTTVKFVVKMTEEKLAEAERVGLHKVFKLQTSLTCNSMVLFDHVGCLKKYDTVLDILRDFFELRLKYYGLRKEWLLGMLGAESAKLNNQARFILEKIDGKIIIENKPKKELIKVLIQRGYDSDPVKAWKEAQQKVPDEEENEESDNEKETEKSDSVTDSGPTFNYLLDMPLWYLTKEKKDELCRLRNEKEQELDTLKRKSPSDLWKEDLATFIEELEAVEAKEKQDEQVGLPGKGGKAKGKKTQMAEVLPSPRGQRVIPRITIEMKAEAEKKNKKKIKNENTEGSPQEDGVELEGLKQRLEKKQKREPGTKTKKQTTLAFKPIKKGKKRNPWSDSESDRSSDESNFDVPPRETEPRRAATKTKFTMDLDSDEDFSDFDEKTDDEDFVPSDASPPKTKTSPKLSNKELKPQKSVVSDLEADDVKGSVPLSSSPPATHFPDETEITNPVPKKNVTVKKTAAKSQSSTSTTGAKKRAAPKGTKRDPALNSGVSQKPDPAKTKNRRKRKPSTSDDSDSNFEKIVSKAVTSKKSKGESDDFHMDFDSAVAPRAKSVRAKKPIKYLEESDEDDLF

melting point [°C]	IC50 (MCF-7) [µM]	IC50 (HepG2) [µM]	IC50 (HCT116) [µM]	SMILES	IC50 (VERO normal cells) [µM]	fold safer in VERO normal cells compared to breast cancer cell lines (MCF-7) (VERO normal cells) [fold]	IC50 (human Topo II) [µM]	IC50 (DNA) [µM]	fold more active than fotemustine [1] [fold]	fold more active than imiquimod [1] [fold]
176 to 178	7.56 ± 0.92	12 ± 1.2	10.2 ± 0.22	Clc1cccc(Cl)c1C1CC(c2ccc(Nc3nc4ccccc4n4cnnc34)cc2)=NN1 (stereo not shown) [Compound 7d, N-{4-[5–(2,6-Dichlorophenyl)-4,5-dihydro-1H-pyrazol-3-yl]phenyl}-[1,2, 4]triazolo[4,3-a]quinoxalin-4-amine]						
250 to 253	13.2 ± 1.39	18 ± 1.6	16.4 ± 1.7	COc1ccc(C=CC(=O)c2ccc(Nc3nc4ccccc4n4cnnc34)cc2)cc1 [Compound 6f, 1-{4-([1,2, 4]Triazolo[4,3-a]quinoxalin-4-ylamino)phenyl}-3–(4-methoxyphenyl)prop-2-en-1-one]						
275 to 277	10.1 ± 1.31	14.06 ± 0.13	11.2 ± 1.2	O=C(C=Cc1ccccc1)c1ccc(Nc2nc3ccccc3n3cnnc23)cc1 [Compound 6a, 1-{4-([1,2, 4]Triazolo[4,3-a]quinoxalin-4-ylamino)phenyl}-3-phenylprop-2-en-1-one]						
195 to 197	14.5 ± 1.03	17.3 ± 1.9	16.2 ± 1.6	O=[N+]([O-])c1cccc(C2CC(c3ccc(Nc4nc5ccccc5n5cnnc45)cc3)=NN2)c1 (stereo not shown) [Compound 7f, N-{4-[5–(3-Nitrophenyl)-4,5-dihydro-1H-pyrazol-3-yl]phenyl} -[1,2, 4]triazolo[4,3-a]quinoxalin-4-amine]						
257 to 259	12.2 ± 1.03	17.2 ± 1.5	13.7 ± 1.7	O=C(C=Cc1cccc([N+](=O)[O-])c1)c1ccc(Nc2nc3ccccc3n3cnnc23)cc1 [Compound 6g, 1-{4-([1,2, 4]Triazolo[4,3-a]quinoxalin-4-ylamino)phenyl}-3–(3-nitrophenyl)prop-2-en-1-one]						
240 to 243	25.8 ± 2.8	35.2 ± 3.3	31.2 ± 1.4	O=C(C=Cc1ccc(Cl)cc1)c1ccc(Nc2nc3ccccc3n3cnnc23)cc1 [Compound 6b, 1-{4-([1,2, 4]Triazolo[4,3-a]quinoxalin-4-ylamino)phenyl}-3–(4-chlorophenyl)prop-2-en-1-one]						
				CNc1nc2ccccc2n2c(CCc3ccccc3)cnc12 [EAPB0203]					110	45
260 to 263	14.6 ± 1.57	16.9 ± 1.4	19.4 ± 1.7	O=C(C=Cc1c(Cl)cccc1Cl)c1ccc(Nc2nc3ccccc3n3cnnc23)cc1 [Compound 6d, 1-{4-([1,2, 4]Triazolo[4,3-a]quinoxalin-4-ylamino)phenyl}-3–(2,6-dichlorophenyl)prop-2-en-1-one]						
261 to 263	11.7 ± 1.68	15.6 ± 1.2	12.4 ± 1.1	O=C(C=Cc1ccc([N+](=O)[O-])cc1)c1ccc(Nc2nc3ccccc3n3cnnc23)cc1 [Compound 6h, 1-{4-([1,2, 4]Triazolo[4,3-a]quinoxalin-4-ylamino)phenyl}-3–(4-nitrophenyl)prop-2-en-1-one]						
245 to 247	9.95	10.9 ± 1.9	10.2 ± 1.7	Cc1ccc(C=CC(=O)c2ccc(Nc3nc4ccccc4n4cnnc34)cc2)cc1 [Compound 6e, 1-{4-([1,2, 4]Triazolo[4,3-a]quinoxalin-4-ylamino)phenyl}-3-(p-tolyl)prop-2-en-1-one]			1.27 ± 0.4	38 ± 0.4		
247 to 249	8.61 ± 0.62	11.3 ± 1.1	9.53 ± 0.93	O=C(C=Cc1ccc(F)cc1)c1ccc(Nc2nc3ccccc3n3cnnc23)cc1 [Compound 6c, 1-{4-([1,2, 4]Triazolo[4,3-a]quinoxalin-4-ylamino)phenyl}-3–(4-fluorophenyl)prop-2-en-1-one]						
150 to 152	15.4 ± 1.42	20.3 ± 1.9	18.2 ± 1.6	c1ccc(C2CC(c3ccc(Nc4nc5ccccc5n5cnnc45)cc3)=NN2)cc1 (stereo not shown) [Compound 7a, N-{4–(5-Phenyl-4,5-dihydro-1H-pyrazol-3-yl)phenyl}-[1,2, 4]triazolo[4,3-a]quinoxalin-4-amine]						
171 to 172	10.3 ± 1.28	12.7 ± 0.13	11.4 ± 1.4	CC(=O)c1ccc(Nc2nc3ccccc3n3cnnc23)cc1 [Compound 5, 1-{4-([1,2, 4]Triazolo[4,3-a]quinoxalin-4-ylamino)phenyl}ethan-1-one]						
	6.75 ± 0.4			COc1cccc2c1C(=O)c1c(O)c3c(c(O)c1C2=O)C[C@@](O)(C(=O)CO)C[C@@H]3O[C@H]1C[C@H](N)[C@H](O)[C@H](C)O1 [Doxorubicin, reference compound]				31.3 ± 1.8		

SMILES	melting point [°C]	IC50 (MCF-7) [µM]	IC50 (HepG2) [µM]	IC50 (HCT116) [µM]	IC50 (VERO normal cells) [µM]	fold safer in VERO normal cells compared to breast cancer cell lines (MCF-7) (VERO normal cells) [fold]	IC50 (human Topo II) [µM]	IC50 (DNA) [µM]	fold more active than fotemustine [1] [fold]	fold more active than imiquimod [1] [fold]
O=[N+]([O-])c1ccc(C2CC(c3ccc(Nc4nc5ccccc5n5cnnc45)cc3)=NN2)cc1 (stereo not shown) [Compound 7g, N-{4-[5–(4-Nitrophenyl)-4,5-dihydro-1H-pyrazol-3-yl]phenyl} -[1,2, 4]triazolo[4,3-a]quinoxalin-4-amine]		8.62 ± 0.95	9.51 ± 1.1	8.96 ± 0.37	38.77 ± 0.16	4.50	1.22 ± 0.4	36.5 ± 0.4		
Clc1ccc(C2CC(c3ccc(Nc4nc5ccccc5n5cnnc45)cc3)=NN2)cc1 (stereo not shown) [Compound 7b, N-{4-[5–(4-Chlorophenyl)-4,5-dihydro-1H-pyrazol-3-yl]phenyl}-[1,2, 4]triazolo[4,3-a]quinoxalin-4-amine]		5.88 ± 0.74	7.46 ± 0.13	6.9 ± 0.95	46.32 ± 0.2	7.88	1.05 ± 0.4	32.5 ± 3		
Cc1ccc(C2CC(c3ccc(Nc4nc5ccccc5n5cnnc45)cc3)=NN2)cc1 (stereo not shown) [Compound 7e, N-{4-[5-(p-Tolyl)-4,5-dihydro-1H-pyrazol-3-yl]phenyl}-[1,2, 4]triazolo[4,3-a]quinoxalin-4-amine]		3.41 ± 0.43	6.15 ± 1.2	5.75 ± 0.37	55.09 ± 0.16	16.16	0.89 ± 0.4	29.1 ± 2.2		
Fc1ccc(C2CC(c3ccc(Nc4nc5ccccc5n5cnnc45)cc3)=NN2)cc1 (stereo not shown) [Compound 7c, N-{4-[5–(4-Fluorophenyl)-4,5-dihydro-1H-pyrazol-3-yl]phenyl}-[1,2, 4]triazolo[4,3-a]quinoxalin-4-amine]		4.45 ± 0.14	6.33 ± 0.14	6.22 ± 0.63	48.11 ± 0.2	10.81	0.94 ± 0.4	31.2 ± 2.9		
